Assay results as given in ChEMBL document CHEMBL1201862, “PubChem BioAssay data set” (2004).
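All cell lines were grown in 96-well plates and treated with compound for 48 hours. GI50 is the concentration that inhibits growth by half.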 Activity calls are given as the source filed them. Rule as the data show it: active = GI50 up to about 1.1 µM and inactive = higher.

Columns and labels:
Assay in all cases: NCI-60 cell line screen, 48 h
[1] = tested on: MOLT-4
[2] = tested on: SF-295
[3] = tested on: Hs-578T
[4] = tested on: SN12C
[5] = tested on: SK-MEL-28
[6] = tested on: NCI-H226
[7] = tested on: HOP-62
[8] = tested on: NCI-H23
[9] = tested on: TK-10
[10] = tested on: SNB-19
[11] = tested on: HOP-92
[12] = tested on: UO-31
[13] = tested on: 786-0
[14] = tested on: MDA-MB-231
[15] = tested on: U-251
[16] = tested on: CAKI-1
[17] = tested on: OVCAR-3
[18] = tested on: HCT-116
[19] = tested on: SK-OV-3

Structure (SMILES)	GI50 [1]	GI50 [2]	GI50 [3]	GI50 [4]	GI50 [5]	GI50 [6]	GI50 [7]	GI50 [8]	GI50 [9]	GI50 [10]	GI50 [11]	GI50 [12]	GI50 [13]	GI50 [14]	GI50 [15]	GI50 [16]	GI50 [17]	GI50 [18]	GI50 [19]
CCS(=O)(=O)CCn1cnc2c1c(=O)n(C)c(=O)n2C	> 100 µM (inactive)	> 100 µM (inactive)	> 100 µM (inactive)	> 100 µM (inactive)	> 100 µM (inactive)	> 100 µM (inactive)	> 100 µM (inactive)	> 100 µM (inactive)	> 100 µM (inactive)	> 100 µM (inactive)	> 100 µM (inactive)	> 100 µM (inactive)	> 100 µM (inactive)	> 100 µM (inactive)	> 100 µM (inactive)	> 100 µM (inactive)	> 100 µM (inactive)	> 100 µM (inactive)	
C/C=C1/CN2CCC34C(=C(C(=O)OC)C1CC23)Nc1ccc(O)cc14 (stereo unspecified)	> 100 µM (inactive)	77.8 µM (inactive)	34.3 µM (inactive)	> 100 µM (inactive)	> 100 µM (inactive)	> 100 µM (inactive)		> 100 µM (inactive)	> 100 µM (inactive)	> 100 µM (inactive)	> 100 µM (inactive)	> 100 µM (inactive)	59.3 µM (inactive)	> 100 µM (inactive)	> 100 µM (inactive)	> 100 µM (inactive)	> 100 µM (inactive)	> 100 µM (inactive)	> 100 µM (inactive)
CCOc1cc2c(cc1O)C(O)C[C@@H]1[C@@H]2CC[C@]2(C)[C@@H](O)CC[C@@H]12 (stereo partly specified)	0.692 µM (active)	0.281 µM (active)	0.46 µM (active)	0.61 µM (active)		0.552 µM (active)	0.675 µM (active)	0.766 µM (active)	0.661 µM (active)	0.465 µM (active)	12.5 µM (inactive)	0.767 µM (active)	0.324 µM (active)	1.25 µM (inactive)	0.394 µM (active)	0.514 µM (active)	0.347 µM (active)	0.261 µM (active)	0.493 µM (active)
COC(=O)C(C)(Cc1ccc2c(c1)nnn2C(C)=O)NC(C)=O (stereo unspecified)	> 100 µM (inactive)	> 100 µM (inactive)	> 100 µM (inactive)		> 100 µM (inactive)	> 100 µM (inactive)		> 100 µM (inactive)	> 100 µM (inactive)	> 100 µM (inactive)	> 100 µM (inactive)	> 100 µM (inactive)	> 100 µM (inactive)	> 100 µM (inactive)		> 100 µM (inactive)	> 100 µM (inactive)	> 100 µM (inactive)	> 100 µM (inactive)
CC1(C)N/C(=C\[N+](=O)[O-])C(C)(C)N1O	> 10 µM (inactive)	> 10 µM (inactive)	> 10 µM (inactive)	> 10 µM (inactive)	> 10 µM (inactive)	> 10 µM (inactive)	> 10 µM (inactive)	> 10 µM (inactive)	> 10 µM (inactive)	> 10 µM (inactive)	> 10 µM (inactive)		> 10 µM (inactive)	> 10 µM (inactive)	> 10 µM (inactive)	> 10 µM (inactive)	> 10 µM (inactive)	> 10 µM (inactive)	> 10 µM (inactive)
CN(C)Cc1cc(C(=O)/C=C/c2ccccc2Cl)cc(CN(C)C)c1O	10.9 µM (inactive)	14.6 µM (inactive)	18.3 µM (inactive)	9.16 µM (inactive)	14.7 µM (inactive)	24.3 µM (inactive)	8.15 µM (inactive)	14.5 µM (inactive)	19.7 µM (inactive)	13.9 µM (inactive)	18.1 µM (inactive)	10.6 µM (inactive)	7.36 µM (inactive)	12.2 µM (inactive)	13.8 µM (inactive)	3.56 µM (inactive)	7.93 µM (inactive)	5.42 µM (inactive)	
Cc1cc(O)no1 [HYMEXAZOL]		> 100 µM (inactive)	> 100 µM (inactive)		> 100 µM (inactive)	> 100 µM (inactive)	> 100 µM (inactive)	> 100 µM (inactive)	> 100 µM (inactive)	> 100 µM (inactive)	> 100 µM (inactive)	> 100 µM (inactive)	> 100 µM (inactive)	> 100 µM (inactive)	> 100 µM (inactive)	> 100 µM (inactive)	> 100 µM (inactive)	> 100 µM (inactive)	> 100 µM (inactive)
O=C(O)c1cc2ccccc2c(Cc2c(O)c(C(=O)O)cc3ccccc23)c1O [PAMOIC ACID]	> 100 µM (inactive)	> 100 µM (inactive)	> 100 µM (inactive)	> 100 µM (inactive)	> 100 µM (inactive)	> 100 µM (inactive)	> 100 µM (inactive)	> 100 µM (inactive)	> 100 µM (inactive)	> 100 µM (inactive)	> 100 µM (inactive)	> 100 µM (inactive)	> 100 µM (inactive)	> 100 µM (inactive)	> 100 µM (inactive)	> 100 µM (inactive)	> 100 µM (inactive)	> 100 µM (inactive)	
